Consider 17 compounds from ChEMBL document CHEMBL3580622 (J Nat Prod, 2015).

Test [1] deals with HL-60. Nature of the test: Cytotoxicity against human HL60 cells assessed as reduction in cell viability after 48 hrs by MTT assay. It is filed as functional, cell-based. To be noted: HL-60, 48 h.
Test [2] deals with MCF7. Nature of the test: Cytotoxicity against human MCF7 cells assessed as reduction in cell viability after 48 hrs by MTT assay. In kind it is functional, cell-based. To be noted: MCF7, 48 h. (In general: Formazan colour is commonly taken as a measure of viable cells.)
The test system of test [3] is SW480. Nature of the test: Cytotoxicity against human SW480 cells assessed as reduction in cell viability after 48 hrs by MTT assay. It is filed as functional, cell-based. To be noted: SW480, 48 h.
Test [4] has as its system A549. Put plainly: Cytotoxicity against human A549 cells assessed as reduction in cell viability after 48 hrs by MTT assay. To be noted: A549, 48 h. It is filed as functional, cell-based.
In test [5] the test system is SMMC-7721. Put plainly: Cytotoxicity against human SMMC7721 cells assessed as reduction in cell viability after 48 hrs by MTT assay. It is filed as functional, cell-based. To be noted: SMMC-7721, 48 h.
The target in test [6] is Acetylcholinesterase (Homo sapiens, UniProt P22303). Put plainly: Inhibition of human erythrocytes acetylcholinesterase after 30 mins using S-acetylthiocholine iodide substrate by spectrophotometry based Ellman method.
Sequence of Acetylcholinesterase (P22303 whole entry): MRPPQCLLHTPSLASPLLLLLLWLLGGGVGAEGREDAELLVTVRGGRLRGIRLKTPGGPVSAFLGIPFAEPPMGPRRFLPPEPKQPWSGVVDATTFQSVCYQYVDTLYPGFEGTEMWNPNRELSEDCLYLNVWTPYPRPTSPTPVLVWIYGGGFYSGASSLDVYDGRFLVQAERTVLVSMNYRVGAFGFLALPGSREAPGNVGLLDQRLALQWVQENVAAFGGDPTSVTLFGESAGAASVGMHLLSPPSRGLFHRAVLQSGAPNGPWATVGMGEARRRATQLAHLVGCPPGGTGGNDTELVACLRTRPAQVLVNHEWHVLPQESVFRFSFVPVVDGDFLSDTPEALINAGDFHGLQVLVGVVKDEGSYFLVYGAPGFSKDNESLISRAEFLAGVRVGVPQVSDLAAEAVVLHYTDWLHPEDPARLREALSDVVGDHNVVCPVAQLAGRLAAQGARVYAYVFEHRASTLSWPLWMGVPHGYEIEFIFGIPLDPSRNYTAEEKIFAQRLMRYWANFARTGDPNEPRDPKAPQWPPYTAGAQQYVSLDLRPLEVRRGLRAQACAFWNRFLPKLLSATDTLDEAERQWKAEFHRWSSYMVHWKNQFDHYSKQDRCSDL

`CC(C)=CCC[C@]1(C)[C@@H](CC=C(C)C)C[C@]2(CC=C(C)C)C(=O)C(CC=C(C)C)=C(O)[C@@]1(C(=O)C(C)C)C2=O`: the IC50 in test [1], in test [2], in test [3], in test [4] and in test [5] was over 40 µM each time.
For the compound `CCC(C)C(=O)[C@]12C(=O)[C@]3(CC=C(C)C)C[C@H](CC=C(C)C)[C@@]1(C)CC[C@@H](C(C)(C)O)OC2=C(CC=C(C)C)C3=O` (some centres undefined), 37.2 µM corresponded to half-maximal inhibition in test [6] (IC50).
Still for that read-out and setting: as for `C=C(C)[C@H]1CC[C@@](C)(O)[C@@H](C2=C(O)C(CC=C(C)C)(CC=C(C)C)C(=O)C(C(=O)C(C)C)=C2O)C1`, the figure is 25.4 µM.
In the case of `CC(C)=CC[C@H]1C[C@]23C[C@H]4C(C)(C)c5ccccc5C(=O)[C@]45C(=O)[C@](CC=C(C)C)(C2=O)[C@@H](CC=C(C)C)[C@@]1(C)[C@@]35O`, the IC50 – broadly, the concentration needed to halve the response being measured – in test [1] was 14 µM; in test [2], 27.7 µM; in test [3] it was over 40 µM; in test [4] it was 19.3 µM; in test [5], 20.8 µM.
Regarding `CC(C)=CC[C@]12C[C@@H]3[C@@H]4[C@@H](O)C(C)(C)[C@@H](C(C)C)CC4(C1=O)C(=O)[C@](C(=O)c1ccccc1)(C2=O)C3(C)C`, the half-maximal inhibitory concentration (IC50) in test [1] was 16.5 µM; in test [2] it was 14.1 µM; in test [3] it was 17.4 µM; in test [4] it was 14.2 µM; in test [6], 26.4 µM; in test [5] it was 16.5 µM.
Regarding `CC(C)=CCC/C(C)=C/C[C@]12C[C@@H]3[C@@H]4[C@@H](O)C(C)(C)[C@@H](C(C)C)CC4(C1=O)C(=O)[C@](C(=O)c1ccccc1)(C2=O)C3(C)C`, the IC50 in test [1] was 14.5 µM; in test [2], 17.6 µM; in test [3], 19.1 µM; in test [4], 13.3 µM; in test [5], 14.2 µM.
The like results for `CC(C)=CC[C@]12C[C@@H]3[C@@H]4[C@@H](O)C(C)(C)[C@@H](C(C)(C)O)CC4(C1=O)C(=O)[C@](C(=O)c1ccccc1)(C2=O)C3(C)C` were, in that order, 17.1 µM, 28.4 µM, over 40 µM, 24.9 µM and 20.8 µM.
In test [6], `C/C(=C\C[C@]12C[C@H]3C[C@@H]4C(C)(C)CC[C@@]4(C1=O)C(=O)[C@](C(=O)c1ccccc1)(C2=O)C3(C)C)CC/C=C/C(C)C` gave an IC50 of 9.8 µM.
Take `CCC(C)C(=O)[C@]12C(=O)[C@]3(CC=C(C)C)OC1(O)[C@](CC=C(C)C)(C[C@H](CC=C(C)C)[C@@]2(C)CCC=C(C)C)C3=O` (some centres undefined): the IC50 in test [1], in test [2], in test [3], in test [4] and in test [5] was over 40 µM throughout.
On to `CC(C)=CCC[C@]1(C)[C@@H](CC=C(C)C)C[C@]23C[C@@H](C(C)(C)O)OC2=C(CC=C(C)C)C(=O)[C@@]1(C(=O)C(C)C)C3=O`, for which the IC50 in test [1], in test [2], in test [3], in test [4] and in test [5] was over 40 µM each time.
Turning to `CCC(C)C(=O)[C@@]12C(=O)C(CC=C(C)C)=C3O[C@H](C(C)(C)O)C[C@]3(C[C@H](CC=C(C)C)[C@@]1(C)CCC=C(C)C)C2=O` (some centres undefined), the 50% inhibitory concentration (IC50) in test [1], in test [2], in test [3], in test [4] and in test [5] was over 40 µM in each case.
`CC(C)=CCC[C@]1(C)[C@@H](CC=C(C)C)C[C@]23C[C@@H](C(C)(C)O)OC2=C(CC=C(C)C)C(=O)[C@@]1(C(=O)c1ccccc1)C3=O`: the concentration for half-maximal inhibition (IC50) in test [1], in test [2], in test [3], in test [4] and in test [5] was over 40 µM throughout.
Consider `CC(C)=CCC1(CC=C(C)C)C(=O)[C@]2(C[C@H]3[C@@H](CC[C@@]3(C)O)[C@](C)(O)C2)C(=O)C(C(=O)C(C)C)=C1O`, for which the half-maximal inhibitory concentration (IC50) in test [1], in test [2], in test [3], in test [4] and in test [5] was over 40 µM in each case.
As to `CC(C)=CCC/C(C)=C/C[C@]12C[C@@H]3[C@H](C=C(C)C)[C@](CC=C(C)C)(C1=O)C(=O)[C@](C(=O)c1ccccc1)(C2=O)C3(C)C`, the IC50 in test [1], in test [2], in test [3], in test [4] and in test [5] was over 40 µM each time.
Turning to `CC(C)=CCC[C@]1(C)[C@@H](CC=C(C)C)C[C@]2(CC=C(C)C)C(=O)[C@@]3(CC=C(C)C)OC2(O)[C@]1(C(=O)C(C)C)C3=O`, the IC50 in test [1], in test [2], in test [3], in test [4] and in test [5] was over 40 µM each time.
On to `CC(=O)O[C@H]1C(=O)[C@@]2(C)[C@H]([C@H](OC(=O)c3ccccc3)[C@]3(O)C[C@H](OC(=O)[C@H](O)[C@@H](NC(=O)c4ccccc4)c4ccccc4)C(C)=C1C3(C)C)[C@]1(OC(C)=O)CO[C@@H]1C[C@@H]2O` [PACLITAXEL], for which the IC50 in test [1], in test [2], in test [3], in test [4] and in test [5] was under 0.008 µM throughout.
For `CC(C)=CC[C@]12C[C@@H]3[C@H](C=C(C)C)[C@](CC=C(C)C)(C1=O)C(=O)[C@](C(=O)c1ccccc1)(C2=O)C3(C)C` [PLUKENETIONE A], the half-inhibitory concentration (IC50) was 23.6 µM in test [1]; 27.7 µM in test [2]; over 40 µM in test [3]; 19.8 µM in test [4]; 16.6 µM in test [5].
